ChEMBL document CHEMBL1201862, “PubChem BioAssay data set” (2004)
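A five-concentration, 48-hour dose response in 96-well plates underlies each endpoint, interpolated linearly between surrounding concentrations. Here, GI50 denotes the concentration required for 50% inhibition of growth.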 Active and inactive are the calls of the source. Rule as the data show it: active = GI50 up to about 1.1 µM and inactive = higher. *1 amine or outer side, *2 acyl side, *3 side chain or, on linkers, in order; H or OH if unused. Where a SMILES comes first, the peptide text is derived from it. Bridges are numbered along the chain shown (N, C = ends). Roman numbers before positions name the chains, in order. [ ]: non-standard residue; d: D form. Actinocin(9to1) = Cc1c2oc3c(C)ccc(C(=O)[*:1])c3nc-2c(C(=O)[*:2])c(N)c1=O; NMeV = CN[CH](C(=O)O)C(C)C; Sar = CNCC(=O)O

Experiments:
Assay in all cases: DTP human tumour cell line panel, 48 h
A498 = tested on: A498
CAKI-1 = tested on: CAKI-1
CCRF-CEM = tested on: CCRF-CEM
COLO 205 = tested on: COLO 205
DU-145 = tested on: DU-145
HL-60 = tested on: HL-60
HT-29 = tested on: HT-29
MDA-MB-231 = tested on: MDA-MB-231
NCI/ADR-RES = tested on: NCI/ADR-RES
OVCAR-4 = tested on: OVCAR-4
OVCAR-8 = tested on: OVCAR-8
RPMI-8226 = tested on: RPMI-8226
SF-268 = tested on: SF-268
SF-295 = tested on: SF-295
SK-MEL-28 = tested on: SK-MEL-28
SK-MEL-5 = tested on: SK-MEL-5
T47D = tested on: T47D
TK-10 = tested on: TK-10
UACC-62 = tested on: UACC-62
UO-31 = tested on: UO-31

SMILES	GI50 (A498)	GI50 (CAKI-1)	GI50 (CCRF-CEM)	GI50 (COLO 205)	GI50 (DU-145)	GI50 (HL-60)	GI50 (HT-29)	GI50 (MDA-MB-231)	GI50 (NCI/ADR-RES)	GI50 (OVCAR-4)	GI50 (OVCAR-8)	GI50 (RPMI-8226)	GI50 (SF-268)	GI50 (SF-295)	GI50 (SK-MEL-28)	GI50 (SK-MEL-5)	GI50 (T47D)	GI50 (TK-10)	GI50 (UACC-62)	GI50 (UO-31)
O=c1ssc(Cl)c1Cl	> 10 µM (inactive)	5.38 µM (inactive)	1.63 µM (inactive)	2.11 µM (inactive)	> 10 µM (inactive)	2.47 µM (inactive)	> 10 µM (inactive)	> 10 µM (inactive)	> 10 µM (inactive)	> 5.6 µM (inactive)	> 10 µM (inactive)	5.19 µM (inactive)	> 10 µM (inactive)	> 10 µM (inactive)	> 10 µM (inactive)	> 10 µM (inactive)	> 10 µM (inactive)	> 10 µM (inactive)	> 10 µM (inactive)	> 4.93 µM (inactive)
CC(=O)Nc1ccc(NC(=O)CC(=O)Nc2ccc(NC(C)=O)cc2)cc1	> 100 µM (inactive)	> 100 µM (inactive)	> 100 µM (inactive)	> 100 µM (inactive)	> 100 µM (inactive)	> 100 µM (inactive)	> 100 µM (inactive)	> 100 µM (inactive)	> 100 µM (inactive)	> 100 µM (inactive)	> 100 µM (inactive)	> 100 µM (inactive)	> 100 µM (inactive)	> 100 µM (inactive)	> 100 µM (inactive)	> 100 µM (inactive)	32 µM (inactive)	> 100 µM (inactive)	5.74 µM (inactive)	> 100 µM (inactive)
O=c1[nH]nc(Cc2ccc(Cl)cc2)n1/N=C/c1ccc([N+](=O)[O-])o1	5.7 µM (inactive)	3.24 µM (inactive)	1.76 µM (inactive)	1.84 µM (inactive)	3.64 µM (inactive)	1.87 µM (inactive)	2.21 µM (inactive)	3.38 µM (inactive)	3.16 µM (inactive)	2.73 µM (inactive)	1.99 µM (inactive)	1.12 µM (active)	2.25 µM (inactive)	2.77 µM (inactive)	3.03 µM (inactive)	2.61 µM (inactive)	21.4 µM (inactive)	4.27 µM (inactive)	2.87 µM (inactive)	2.16 µM (inactive)
O=C1c2ccccc2-c2c1c1ccccc1c(=O)n2-c1cccnc1	> 10 µM (inactive)	35.3 µM (inactive)	> 10 µM (inactive)	> 68.1 µM (inactive)	> 100 µM (inactive)	> 10 µM (inactive)	> 63.7 µM (inactive)	> 59.7 µM (inactive)	45.8 µM (inactive)	> 49.3 µM (inactive)	31.8 µM (inactive)	> 39.5 µM (inactive)	29.5 µM (inactive)	27 µM (inactive)	> 100 µM (inactive)	73.5 µM (inactive)	> 64.4 µM (inactive)	> 62.1 µM (inactive)	32 µM (inactive)	> 48.8 µM (inactive)
CCOC(=O)Nc1cc2ccccc2c(/N=N/c2ccccc2)c1O	> 100 µM (inactive)	75.3 µM (inactive)	> 100 µM (inactive)	> 100 µM (inactive)	> 100 µM (inactive)	> 100 µM (inactive)	> 100 µM (inactive)	> 100 µM (inactive)	> 100 µM (inactive)	20.2 µM (inactive)	37.2 µM (inactive)	> 100 µM (inactive)	58.2 µM (inactive)	31.7 µM (inactive)	> 100 µM (inactive)	> 100 µM (inactive)	91.4 µM (inactive)	> 100 µM (inactive)	> 100 µM (inactive)	> 100 µM (inactive)
COc1cc2c(cc1O)C1Cc3ccc(OC)c(O)c3C[N+]1(C)CC2 (stereo not given)	> 100 µM (inactive)	> 100 µM (inactive)	45 µM (inactive)	> 100 µM (inactive)	> 100 µM (inactive)	> 100 µM (inactive)	> 100 µM (inactive)	> 100 µM (inactive)	> 100 µM (inactive)	> 100 µM (inactive)	> 100 µM (inactive)	> 100 µM (inactive)	> 100 µM (inactive)	> 100 µM (inactive)	> 100 µM (inactive)	> 100 µM (inactive)	> 100 µM (inactive)	> 100 µM (inactive)	> 100 µM (inactive)	> 100 µM (inactive)
Cc1c2oc3c(C)ccc(C(=O)NC4C(=O)NC(C(C)C)C(=O)N5CCCC5C(=O)N(C)CC(=O)N(C)C(C(C)C)C(=O)OC4C)c3nc-2c(C(=O)NC2C(=O)NC(C(C)C)C(=O)N3CCCC3C(=O)N(C)CC(=O)N(C)C(C(C)C)C(=O)OC2C)c(N)c1=O (stereo not given) (I: TVP[Sar][NMeV] / II: TVP[Sar][NMeV]; ester I:1-I:C, II:1-II:C; linker I:N-II:N via Actinocin(9to1); configuration not given here)	0.00169 µM (active)	0.00224 µM (active)	< 0.0001 µM (active)	0.000161 µM (active)	0.000359 µM (active)	0.00017 µM (active)	< 0.0001 µM (active)	0.00494 µM (active)	0.0499 µM (active)	0.000445 µM (active)	0.000212 µM (active)	0.00104 µM (active)	< 0.0001 µM (active)	0.000522 µM (active)	0.000764 µM (active)	0.000351 µM (active)	0.000507 µM (active)	0.0101 µM (active)	< 0.0001 µM (active)	0.0152 µM (active)
CC(C)=CCC[C@@H](C)[C@H]1CC[C@@]2(C)[C@@H]3CC[C@H]4C(C)(C)[C@@H](O)CC[C@@]45C[C@@]35CC[C@]12C [CYCLOARTENOL]	41.2 µM (inactive)	59.6 µM (inactive)	23 µM (inactive)	> 60 µM (inactive)	59.7 µM (inactive)	33.7 µM (inactive)	> 100 µM (inactive)	> 44.9 µM (inactive)	23.4 µM (inactive)	> 100 µM (inactive)	16.9 µM (inactive)	45 µM (inactive)	27.7 µM (inactive)	> 48.2 µM (inactive)	39.4 µM (inactive)	> 44.4 µM (inactive)	51.4 µM (inactive)	> 100 µM (inactive)	44.4 µM (inactive)	> 40.7 µM (inactive)
Oc1ccc(Cl)cc1Sc1cc(Cl)ccc1O [FENTICLOR]	11.2 µM (inactive)	17.9 µM (inactive)	5.92 µM (inactive)	20.7 µM (inactive)	14.2 µM (inactive)	7.87 µM (inactive)	18 µM (inactive)	15 µM (inactive)	12.5 µM (inactive)	10 µM (inactive)	15 µM (inactive)	3.32 µM (inactive)	10.3 µM (inactive)	13.5 µM (inactive)	11.8 µM (inactive)	3.83 µM (inactive)	5.85 µM (inactive)	17.1 µM (inactive)	5.66 µM (inactive)	6.78 µM (inactive)
O=C1c2ccccc2-n2c1nc1ccccc1c2=O [TRYPTANTHRIN]	18.2 µM (inactive)	12.3 µM (inactive)	9.08 µM (inactive)	12.8 µM (inactive)	10.7 µM (inactive)	3.71 µM (inactive)	14.8 µM (inactive)	16.7 µM (inactive)	22.3 µM (inactive)	19.1 µM (inactive)	5.79 µM (inactive)	1.04 µM (active)	19.9 µM (inactive)	4.29 µM (inactive)	15.8 µM (inactive)	13.1 µM (inactive)	8.87 µM (inactive)	> 43.3 µM (inactive)	3.69 µM (inactive)	5.06 µM (inactive)
